According to patent US9061010B2, “Methods of treating a Flaviviridae family viral infection and compositions for treating a Flaviviridae family viral infection” (The Board of Trustees of the Leland Stanford Junior …, priority 2007, dated 2015):
“Also recorded” adds a separate entry of the source.

Experiments:
[1] = tested on: HCV RNA replication (full-length luciferase reporter-linked HCV genome); assay: Luciferase reporter-linked HCV replication assay in Huh7.5 cells; assay type: cell-based, Hepatitis C Virus; conditions: for percent of normal HCV RNA replication remaining at 5 µM / percent of normal HCV RNA replication remaining at 10 µM: Hepatitis C virus, Huh7.5, read-out: AV, percent of normal HCV RNA replication remaining
Method: For example, HCV replication assays employing a luciferase reporter-linked HCV genome in the presence of various combinations of clemizole and an NS3 protease inhibitor (SCH503034) are shown in FIGS. 1A and 1B. In such assays, luciferase activity is directly proportional to HCV RNA genome replication. […] The results can be plotted on a linear or log scale as a function of drug concentrations to generate replication inhibition curves.
Luciferase assays were performed at 72 hr.
(§1) Medium was changed daily.
The experiment was repeated four times, each time with triplicates.

HuR protein = molecular target: T1, HuR protein (Homo sapiens, UniProt Q15717); assay: Microfluidic RNA binding assay of HuR (specificity of hits); conditions: 0.1 mM
T1 construct: made in house; […]
Excerpt: For each experiment, an image was taken after MITOMI and the final PBS wash. This was used to determine the concentration of surface bound protein (FITC channel) as well as surface bound target RNA (Cy3 channel). […] Data from multiple data points were averaged, and their standard deviations calculated. Results were then normalized to 1. Between 10-20 replicates were included for each probe tested. A control protein, Gus-his (Roche) was included in each experiment and subjected to the same analysis. When present, detected signal with Gus-his was used for background subtraction.
Specificity of hits identified in the small molecule screen: To determine the specificity of the hits identified in the small molecule screen, the HuR protein (one of the human RNA binding protein used to validate our RNA binding assay) was selected. […] Binding of HuR to the consensus 4A RNA sequence was tested in the presence of the inhibitory molecules shown to inhibit RNA binding by NS4B. […] Similarly, 0.1 mM of the identified compounds didn't have an inhibitory effect on binding of HuR to the 3′ terminus of the negative HCV RNA strand.

Huh7.5 cells = assay: Alamar Blue viability assay
Method: (§2) Huh-7.5 cells were maintained in Dulbecco's modified minimal essential medium (Gibco) supplemented with 1% L-glutamine (Gibco), 1% penicillin, 1% streptomycin (Gibco), 1× nonessential amino acids (Gibco) and 10% fetal bovine serum (Omega Scientific). Cell lines were passaged twice weekly after treatment with 0.05% trypsin-0.02% EDTA and seeding at a dilution of 1:5. Subconfluent Huh-7.5 cells were trypsinized and collected by centrifugation at 700 g for 5 min. The cells were then washed three times in ice-cold RNase-free PBS (BioWhittaker) and resuspended at 1.5*10^7 cells/ml in PBS. Wild type or mutant FL-J6/JFH-5′C19Rluc2AUbi RNA for electroporation was generated by in vitro transcription of XbaI-linearized DNA templates using the T7 MEGAscript kit (Ambion), followed by purification, essentially as described above (In vitro RNA transcription and fluorescent labeling). 5 μg of RNA was mixed with 400 μl of washed Huh-7.5 cells in a 2 mm-gap cuvette (BTX) and immediately pulsed (0.82 kV, five 99 μs pulses) with a BTX-830 electroporator. After a 10 min recovery at 25° C., pulsed cells were diluted into 10 ml of prewarmed growth medium. Cells from several electroporations were pooled to a common a stock and seeded in 6 well plates (5*10^5 cells per well). After 24 hr, medium was replaced and cells were grown in the presence of serial dilutions of the various inhibitory compounds (Sigma) identified in the screen. […] Untreated cells were used as a negative control for water soluble compounds. For compounds solubilized in DMSO, untreated cells were grown in the presence of corresponding concentrations of the solvent as a negative control. Medium was changed daily. After 72 hr of treatment, cells were subjected to an alamar blue based viability assay and luciferase assay.
(§3) Following 72 hrs of treatment, cells were incubated for 3 hrs at 37° C. in the presence of 10% Alamar Blue reagent (TREK Diagnostic Systems).

[2] = cited from earlier work
[3] = molecular target: HCV NS4B binding to the 3′ terminus of the HCV negative strand RNA (Hepatitis C virus genotype 1a, UniProt P27958); assay: Microfluidic (MITOMI) in vitro RNA binding assay of NS4B; conditions: 10 nM clemizole
[4] = molecular target: T2, W55R NS4B mutant binding to HCV RNA (Hepatitis C virus genotype 1a, UniProt P27958, A1893V/D1840G/F1898S/L1839I/R1905H/S1900A/W1766R); assay: Microfluidic in vitro RNA binding assay, W55R NS4B mutant; conditions: 10 nM clemizole
T2 construct: made in house; host or cells: coupled transcription/translation rabbit reticulocyte system (Promega) with canine microsomal membranes
Excerpt: This mutation was also introduced into the NS4B-GFP vector and the resulting vector tested for its RNA binding activity using the in vitro microfluidic assay of the invention.
The plasmid pcDNA-NS4B-GFP encoding NS4B of genotype 1a fused in frame with a C-terminal GFP was previously described^5. The mutations RRa, RRb and W55R were introduced into this plasmid by site-directed mutagenesis (using the QuikChange kit (Stratagene)). The plasmid NS5A(AH)GFP was constructed as previously reported. Gus-his vector was obtained from Roche.

W55R mutant J6/JFH RNA = assay: Luciferase reporter-linked replication assay, W55R mutant; assay type: cell-based, Hepatitis C Virus; conditions: 10 μM clemizole; whole cell RNA or in vitro-transcribed RNA
Excerpt: Two of the clemizole-resistant NS4B mutants were characterized in detail. The first, W55R is depicted in FIG. 9a. It involves the substitution of an arginine for the tryptophan at amino acid 55 within a predicted cytoplasmically-oriented segment of NS4B. This mutation is sufficient to confer a clemizole-resistant phenotype in cells: Huh7.5 cells transfected with either whole cell RNA extracted from the W55R mutant cells (FIG. 9b) or with in vitro-transcribed J6/JFH RNA encoding this point mutation and a linked luciferase reporter gene (FIG. 9c) were unaffected by 10 μM clemizole.
The plasmid FL-J6/JFH-5′C19Rluc2AUbi that consists of the full-length HCV genome and expresses Renilla luciferase was a gift from Dr. Charles M. Rice^28. The W55R mutation was introduced into this plasmid by site-directed mutagenesis (using the QuikChange kit (Stratagene)).
as §1
Whole cell RNA was extracted from clemizole-resistant replicon clones and from untreated replicon cells using TRIzol reagent (Invitrogen). Equal amounts of whole cell RNA (50 μg) were electroporated into Huh7.5 cells as described above. Cells were grown under G418 selection in the presence or absence of clemizole for 3 weeks. The number of colonies was determined using Image J (NIH) following fixation and staining with Crystal violet.

[5] = cited from earlier work; remark: listed apart in the source
HCV (genotype 4) = assay: Treatment of patients chronically infected with HCV, serum HCV viral load; assay type: in vivo, human
Method: Three patients chronically-infected with HCV (genotype 4) were treated in accordance with an embodiment of the method of the invention. All were male and had baseline ALT elevations and significant HCV viral loads ranging from 290,000-730,000 IU/ml.
After the first four weeks of clemizole monotherapy, pegylated interferon (180 micrograms Pegasus (Roche) s.q. per week) was added.

[6] = Alamar Blue viability assay; conditions: human
Method: as §2, §3

With `Cc1nc2cc(Cl)ccc2n1Cc1ccccc1` the AV score ([1]; 5 uM) was “+ (60-90% residual activity)”, the AV score ([1]; 10 uM) was “+ (60-90% residual activity)” and the percent of normal HCV RNA replication remaining at 5 µM ([1]; 5 uM) was 87%. The percent of normal HCV RNA replication remaining at 10 µM ([1]; 10 uM) was 60%.

With `Cc1cc2ncn(Cc3ccc(Cl)cc3Cl)c2cc1C` the AV score ([1]; 5 uM) was “+++ (0-30% residual activity)”, the AV score ([1]; 10 uM) was “+++ (0-30% residual activity)” and the percent of normal HCV RNA replication remaining at 5 µM ([1]; 5 uM) was 30%. For the same compound, the percent of normal HCV RNA replication remaining at 10 µM ([1]; 10 uM) was 8%.

With `Brc1ccc(Cn2cnc3ccccc32)cc1` the AV score ([1]; 5 uM) was “+++ (0-30% residual activity)”, the AV score ([1]; 10 uM) was “+++ (0-30% residual activity)” and the percent of normal HCV RNA replication remaining at 5 µM ([1]; 5 uM) was 23%. The percent of normal HCV RNA replication remaining at 10 µM ([1]; 10 uM) was 8%.

For `Cc1nc2ccccc2n1Cc1ccc(Br)cc1`, the AV score ([1]; 5 uM) was “+++ (0-30% residual activity)”, the AV score ([1]; 10 uM) was “+++ (0-30% residual activity)” and the percent of normal HCV RNA replication remaining at 5 µM ([1]; 5 uM) was 3%. For the same compound, the percent of normal HCV RNA replication remaining at 10 µM ([1]; 10 uM) was 2%.

For `OCc1nc2ccccc2n1Cc1ccc(Br)cc1`, the AV score ([1]; 5 uM) was “++ (30-60% residual activity)”, the AV score ([1]; 10 uM) was “+++ (0-30% residual activity)” and the percent of normal HCV RNA replication remaining at 5 µM ([1]; 5 uM) was 50%. For the same compound, the percent of normal HCV RNA replication remaining at 10 µM ([1]; 10 uM) was 28%.

In the case of `COC(=O)c1ccc(Cn2cnc3ccccc32)cc1`, the AV score ([1]; 5 uM) is reported as “+ (60-90% residual activity)”, the AV score ([1]; 10 uM) is reported as “++ (30-60% residual activity)” and the percent of normal HCV RNA replication remaining at 5 µM ([1]; 5 uM) is reported as 74%. For the same compound, the percent of normal HCV RNA replication remaining at 10 µM ([1]; 10 uM) was 54%.

With `CC(C)(C)c1ccc(Cn2cnc3ccccc32)cc1` the AV score ([1]; 5 uM) was “+++ (0-30% residual activity)”, the AV score ([1]; 10 uM) was “+++ (0-30% residual activity)” and the percent of normal HCV RNA replication remaining at 5 µM ([1]; 5 uM) was 30%. The percent of normal HCV RNA replication remaining at 10 µM ([1]; 10 uM) was 12%.

With `Cc1ccc(Cn2cnc3ccccc32)cc1` the AV score ([1]; 5 uM) was “++ (30-60% residual activity)”, the AV score ([1]; 10 uM) was “+++ (0-30% residual activity)” and the percent of normal HCV RNA replication remaining at 5 µM ([1]; 5 uM) was 49%. It also gave a percent of normal HCV RNA replication remaining at 10 µM ([1]; 10 uM) of 23%.

In the case of `COc1ccc(Cn2cnc3ccccc32)cc1`, the AV score ([1]; 5 uM) is reported as “+ (60-90% residual activity)”, the AV score ([1]; 10 uM) is reported as “++ (30-60% residual activity)” and the percent of normal HCV RNA replication remaining at 5 µM ([1]; 5 uM) is reported as 70%. For the same compound, the percent of normal HCV RNA replication remaining at 10 µM ([1]; 10 uM) was 58%.

For `O=C(O)C1=CC(=C(c2ccc(O)c(C(=O)O)c2)c2ccc(O)c(C(=O)O)c2)C=CC1=O` [ATA, Aurintricarboxilic acid], the “inhibitory effect on binding of HuR to the 3′ terminus of the negative HCV RNA strand” value (HuR protein) was “significantly inhibited” and the “inhibitory effect on binding of HuR to the consensus 4A RNA sequence” value (HuR protein) was “significantly inhibited”.

In the case of `Cl.Clc1ccc(Cn2c(CN3CCCC3)nc3ccccc32)cc1` [Clemizole hydrochloride, 1-p-Chlorobenzyl-2-(1-pyrrolidinyl)methylbenzimidazole hydrochloride, reference compound], the cellular toxicity (Huh7.5 cells; at concentrations up to 20 μM, 72 hr, Alamar Blue) is listed as “no measurable cellular toxicity”, the “decrease in viral replication” value ([1]; 20 μM, luciferase at 72 hr) is listed as “tenfold decrease” and the “time to relief of itching” value ([2]; human, in vivo) is listed as 24 to 48 h.

In the case of `Clc1ccc(Cn2c(CN3CCCC3)nc3ccccc32)cc1` [clemizole], the “toxicity to the cell in the real-time PCR experiment” value (Huh7.5 cells; HCV-infected Huh7.5 cells, 72 hours, FIG. 15) is reported as “no measurable toxicity to the cell”, the “reduction of RNA binding, wild type NS4B” value [3] is reported as about 2 fold and the “reduction of RNA binding, W55R mutant NS4B” value [4] is reported as about 2 fold. For the same compound, the “difference between IC50 for in vitro RNA binding and EC50 for antiviral effect in cells” value [1] was about 400 fold, the “effect of adding clemizole to SCH503034 on inhibition of HCV replication” value ([1]; SCH503034 1-5 micromolar, 72 hours, FIGS. 1A and 1B) was “increase the inhibition of HCV replication in a dose-dependent manner by up to several logs” and the “replication of W55R mutant in presence of clemizole” value (W55R mutant J6/JFH RNA) was “unaffected”. The “drowsiness, share of patients treated” value ([5]; Zierz and Greither) was 1.3%, the patients with drowsiness ([5]; human, in vivo) was 2 of the 104 patients and the “subjects who responded to treatment” value ([5]; various dosage forms) was 92 of the 104 subjects. The “HCV viral load after clemizole monotherapy” value (HCV (genotype 4); 100 mg po BID, week 4, 3 patients) was “nearly at or below the limit of HCV detection; also recorded: completely, or nearly, undetectable”, the “HCV viral load after clemizole monotherapy plus clemizole with pegylated interferon” value (HCV (genotype 4); 4 weeks monotherapy plus 4 weeks clemizole-standard dose pegylated interferon) was “below the limit of detection” and the “inhibitory effect on binding of HuR to the consensus 4A RNA sequence” value (HuR protein) was “No inhibitory effect”. For the same compound, the “patients reporting excellent relief of itching” value ([2]; 40 to 160 mg/day) was 66%, the “patients reporting good relief of itching” value ([2]; 40 to 160 mg/day) was 23% and the “patients with mild side effects” value ([2]; drowsiness most common) was 4 patients.

In the case of `Clc1ccc(Cn2c(CN3CCCC3)nc3ccccc32)cc1` [drawing 374], the viability at 72 h, 5 µM [6] is reported as 90 to 100%, the viability at 72 h, 10 µM [6] is reported as 90 to 100% and the “Viab, percent of normal cell viability remaining” value (Huh7.5 cells; 5 uM) is reported as 107%. For the same compound, the “Viab, percent of normal cell viability remaining” value (Huh7.5 cells; 10 uM) was 93%, the AV score ([1]; 5 uM) was “+ (60-90% residual activity)” and the AV score ([1]; 10 uM) was “++ (30-60% residual activity)”. It also gave a percent of normal HCV RNA replication remaining at 5 µM ([1]; 5 uM) of 62% and a percent of normal HCV RNA replication remaining at 10 µM ([1]; 10 uM) of 37%.

In the case of Interferon alpha B2, the “reduction of luciferase activity (positive control)” value ([1]; 100 u/ml, 72 hr treatment) is reported as “three log reduction”.
